Data on one compound can be found in ChEMBL document CHEMBL4052785, “Discovery of (R)-5-(benzo[d][1,3]dioxol-5-yl)-7-((1-(vinylsulfonyl)pyrrolidin-2-yl)methyl)-7H-pyrrolo[2,3-d]pyrimidin-4-amine (B6) as a potent Bmx inhibitor for the treatment of NSCLC” (Bioorg Med Chem Lett, 2017).

The species named for test [1] is Homo sapiens. Briefly: Selectivity ratio of IC50 for human N-terminal 6His-tagged HER4 (706 to 991 residues) to IC50 for human full length N-terminal His6-tagged BMX.
Test [2] has as its target Tyrosine-protein kinase Tec (Homo sapiens, UniProt P42680). Briefly: Inhibition of recombinant human N-terminal His6-tagged TEC (174 to end residues) expressed in baculovirus Sf21 insect cells preincubated for 5 mins followed by Ulight-TK peptide substrate addition after 30 to 60 mins in presence of ATP by fluorescence assay.
The species entered for test [3] is Homo sapiens. The experiment in a line: Selectivity ratio of IC50 for recombinant human N-terminal His6-tagged ABL (27 to end residues) to IC50 for human full length N-terminal His6-tagged BMX.
Test [4] addresses Receptor-type tyrosine-protein kinase FLT3 (Homo sapiens, UniProt P36888). Briefly: Inhibition of recombinant human N-terminal GST-tagged FLT3 (564 to end residues) expressed in expressed in Sf21 cells preincubated for 5 mins followed by substrate addition after 30 to 60 mins in presence of ATP by fluorescence assay.
Test [5] concerns the target Epidermal growth factor receptor (Homo sapiens, UniProt P00533). Briefly: Inhibition of recombinant human N-terminal GST-tagged EGFR (696 to end residues) expressed in baculovirus Sf21 insect cells preincubated for 5 mins followed by substrate addition after 30 to 60 mins in presence of ATP by fluorescence assay.
The target in test [6] is Receptor tyrosine-protein kinase erbB-4 (Homo sapiens, UniProt Q15303). The experiment in a line: Inhibition of human N-terminal 6His-tagged HER4 (706 to 991 residues) preincubated for 5 mins followed by substrate addition after 30 to 60 mins in presence ATP of fluorescence assay.
The target of test [7] is Cytoplasmic tyrosine-protein kinase BMX (Homo sapiens, UniProt P51813). The experiment in a line: Inhibition of recombinant human full length N-terminal His6-tagged BMX expressed in Sf21 cells preincubated for 5 mins followed by biotinyl-beta Abeta Abeta AEEEPQYEEIPIYLELLP substrate addition after 30 to 60 mins in presence of ATP by fluorescence assay.
Test [8] deals with Tyrosine-protein kinase Lyn (Homo sapiens, UniProt P07948). Briefly: Inhibition of recombinant human full length N-terminal His6-tagged LYN expressed in Sf21 insect cells preincubated for 5 mins followed by […] substrate addition after 30 to 60 mins in presence of ATP by fluorescence assay.
Test [9] addresses Proto-oncogene tyrosine-protein kinase receptor Ret (Homo sapiens, UniProt P07949). Briefly: Inhibition of recombinant human N-terminal GST-tagged RET (658 to end residues) expressed in baculovirus Sf21 insect cells preincubated for 5 mins followed by biotinyl-beta Abeta Abeta AAEEEEYFELVAKKK substrate addition after 30 to 60 mins in presence of ATP by fluorescence assay.
For test [10], the species on record is Homo sapiens. Briefly: Selectivity ratio of IC50 for C-terminal His6-tagged human Her2 (676 to end residues) to IC50 for human full length N-terminal His6-tagged BMX.
The target of test [11] is Receptor tyrosine-protein kinase erbB-2 (Homo sapiens, UniProt P04626). The experiment in a line: Inhibition of human C-terminal 6His-tagged Her2 (676 to end) expressed in baculovirus Sf21 insect cells preincubated for 5 mins followed by biotinyl-beta Abeta Abeta AAEEEEYFELVAKKK substrate addition after 30 to 60 mins in presence of ATP by fluorescence assay.
For test [12], the target named is Tyrosine-protein kinase Blk (Homo sapiens, UniProt P51451). The experiment in a line: Inhibition of BLK (unknown origin) preincubated for 5 mins followed by substrate addition after 30 to 60 mins in presence of ATP by fluorescence assay.
For test [13], the target named is Tyrosine-protein kinase JAK2 (Homo sapiens, UniProt O60674). Briefly: Inhibition of recombinant human C-terminal His6-tagged JAK2 (808 to end residues) expressed in baculovirus Sf21 insect cells preincubated for 5 mins followed by substrate addition after 30 to 60 mins in presence of ATP by fluorescence assay.
The species named for test [14] is Homo sapiens. The experiment in a line: Selectivity ratio of IC50 for recombinant human N-terminal His6-tagged TEC (174 to end residues) to IC50 for human full length N-terminal His6-tagged BMX.
Test [15] is filed under the species Homo sapiens. The experiment in a line: Selectivity ratio of IC50 for BLK (unknown origin) to IC50 for human full length N-terminal His6-tagged BMX.

Each structure is given as a SMILES string.

Chain of Tyrosine-protein kinase JAK2 (O60674 whole entry): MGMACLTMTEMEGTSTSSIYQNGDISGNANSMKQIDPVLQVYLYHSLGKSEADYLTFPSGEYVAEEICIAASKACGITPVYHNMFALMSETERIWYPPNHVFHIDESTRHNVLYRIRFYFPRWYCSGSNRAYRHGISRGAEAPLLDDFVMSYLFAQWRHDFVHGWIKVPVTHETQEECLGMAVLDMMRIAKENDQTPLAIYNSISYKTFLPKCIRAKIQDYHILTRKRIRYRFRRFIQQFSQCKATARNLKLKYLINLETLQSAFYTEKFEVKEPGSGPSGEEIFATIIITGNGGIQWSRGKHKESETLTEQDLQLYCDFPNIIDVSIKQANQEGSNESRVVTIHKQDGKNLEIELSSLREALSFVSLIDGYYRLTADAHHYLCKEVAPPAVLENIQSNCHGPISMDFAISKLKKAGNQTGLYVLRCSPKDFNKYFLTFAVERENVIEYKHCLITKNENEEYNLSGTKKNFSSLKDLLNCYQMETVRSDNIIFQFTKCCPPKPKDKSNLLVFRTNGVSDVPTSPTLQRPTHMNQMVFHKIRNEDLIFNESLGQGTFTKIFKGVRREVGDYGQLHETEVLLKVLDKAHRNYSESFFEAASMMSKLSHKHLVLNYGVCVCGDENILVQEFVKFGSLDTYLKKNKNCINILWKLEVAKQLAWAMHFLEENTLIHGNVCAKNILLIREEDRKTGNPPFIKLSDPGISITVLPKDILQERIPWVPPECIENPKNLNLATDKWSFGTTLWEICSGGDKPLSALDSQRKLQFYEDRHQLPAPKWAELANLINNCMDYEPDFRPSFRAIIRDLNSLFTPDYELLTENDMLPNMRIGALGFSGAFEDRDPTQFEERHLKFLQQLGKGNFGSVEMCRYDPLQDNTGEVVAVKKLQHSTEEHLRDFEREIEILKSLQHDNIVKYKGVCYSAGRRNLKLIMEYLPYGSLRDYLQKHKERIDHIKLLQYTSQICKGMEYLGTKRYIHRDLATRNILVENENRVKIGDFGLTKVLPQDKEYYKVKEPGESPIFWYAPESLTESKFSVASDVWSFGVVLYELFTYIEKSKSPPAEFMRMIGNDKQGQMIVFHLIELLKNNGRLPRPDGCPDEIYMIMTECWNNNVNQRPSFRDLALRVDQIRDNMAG
Chain of Cytoplasmic tyrosine-protein kinase BMX (P51813 whole entry): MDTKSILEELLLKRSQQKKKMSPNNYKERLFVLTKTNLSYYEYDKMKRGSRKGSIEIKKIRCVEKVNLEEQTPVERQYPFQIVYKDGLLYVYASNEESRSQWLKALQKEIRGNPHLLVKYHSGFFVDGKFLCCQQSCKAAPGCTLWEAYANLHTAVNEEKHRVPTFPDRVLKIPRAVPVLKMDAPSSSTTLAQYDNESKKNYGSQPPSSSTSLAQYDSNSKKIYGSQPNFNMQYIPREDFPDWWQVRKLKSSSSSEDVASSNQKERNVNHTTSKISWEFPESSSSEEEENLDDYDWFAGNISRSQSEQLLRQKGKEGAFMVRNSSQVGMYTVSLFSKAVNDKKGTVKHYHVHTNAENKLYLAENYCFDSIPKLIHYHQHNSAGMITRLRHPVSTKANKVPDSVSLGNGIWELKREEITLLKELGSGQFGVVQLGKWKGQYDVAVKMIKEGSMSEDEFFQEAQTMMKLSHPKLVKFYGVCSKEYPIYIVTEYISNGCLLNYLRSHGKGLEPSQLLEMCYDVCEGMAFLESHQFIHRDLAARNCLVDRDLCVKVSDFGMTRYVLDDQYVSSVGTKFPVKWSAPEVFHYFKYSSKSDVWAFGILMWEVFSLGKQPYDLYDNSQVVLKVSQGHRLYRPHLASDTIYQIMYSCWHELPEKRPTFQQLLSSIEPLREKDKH
Chain of Receptor tyrosine-protein kinase erbB-4 (Q15303 whole entry, the tested form may be a part): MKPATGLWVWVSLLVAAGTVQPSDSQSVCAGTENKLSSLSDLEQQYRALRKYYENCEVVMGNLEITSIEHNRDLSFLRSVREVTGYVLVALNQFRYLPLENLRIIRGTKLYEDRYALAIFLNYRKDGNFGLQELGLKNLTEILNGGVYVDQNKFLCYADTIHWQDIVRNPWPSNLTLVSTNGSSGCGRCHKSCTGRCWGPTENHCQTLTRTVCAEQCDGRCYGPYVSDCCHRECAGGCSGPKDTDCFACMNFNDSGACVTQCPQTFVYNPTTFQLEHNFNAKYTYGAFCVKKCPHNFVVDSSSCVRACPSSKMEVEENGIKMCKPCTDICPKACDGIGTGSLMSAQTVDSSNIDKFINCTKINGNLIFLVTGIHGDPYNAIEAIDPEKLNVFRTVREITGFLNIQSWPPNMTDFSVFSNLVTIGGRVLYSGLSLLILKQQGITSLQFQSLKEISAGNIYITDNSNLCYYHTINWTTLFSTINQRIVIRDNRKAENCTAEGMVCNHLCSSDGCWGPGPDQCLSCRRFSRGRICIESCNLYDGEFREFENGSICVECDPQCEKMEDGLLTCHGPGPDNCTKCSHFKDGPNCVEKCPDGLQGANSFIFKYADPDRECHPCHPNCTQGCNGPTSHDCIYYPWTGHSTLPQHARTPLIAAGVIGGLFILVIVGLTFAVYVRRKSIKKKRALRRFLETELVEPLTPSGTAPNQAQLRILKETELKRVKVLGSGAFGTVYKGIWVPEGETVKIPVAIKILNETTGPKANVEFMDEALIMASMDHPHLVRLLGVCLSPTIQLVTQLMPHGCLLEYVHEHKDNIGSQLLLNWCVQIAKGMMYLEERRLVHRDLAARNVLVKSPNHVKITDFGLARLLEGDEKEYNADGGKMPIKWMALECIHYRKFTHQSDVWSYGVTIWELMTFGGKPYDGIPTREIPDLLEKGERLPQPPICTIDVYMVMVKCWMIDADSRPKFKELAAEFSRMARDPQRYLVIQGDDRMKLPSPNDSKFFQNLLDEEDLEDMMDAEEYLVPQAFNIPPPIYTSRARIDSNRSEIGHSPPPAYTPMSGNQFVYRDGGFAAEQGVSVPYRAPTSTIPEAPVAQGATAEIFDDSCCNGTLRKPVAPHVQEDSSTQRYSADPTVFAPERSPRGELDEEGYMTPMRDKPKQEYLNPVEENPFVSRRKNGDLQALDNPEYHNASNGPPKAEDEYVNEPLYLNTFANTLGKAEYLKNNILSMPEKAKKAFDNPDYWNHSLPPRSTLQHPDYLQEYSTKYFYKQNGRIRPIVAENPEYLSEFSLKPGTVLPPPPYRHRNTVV
Chain of Receptor-type tyrosine-protein kinase FLT3 (P36888 whole entry): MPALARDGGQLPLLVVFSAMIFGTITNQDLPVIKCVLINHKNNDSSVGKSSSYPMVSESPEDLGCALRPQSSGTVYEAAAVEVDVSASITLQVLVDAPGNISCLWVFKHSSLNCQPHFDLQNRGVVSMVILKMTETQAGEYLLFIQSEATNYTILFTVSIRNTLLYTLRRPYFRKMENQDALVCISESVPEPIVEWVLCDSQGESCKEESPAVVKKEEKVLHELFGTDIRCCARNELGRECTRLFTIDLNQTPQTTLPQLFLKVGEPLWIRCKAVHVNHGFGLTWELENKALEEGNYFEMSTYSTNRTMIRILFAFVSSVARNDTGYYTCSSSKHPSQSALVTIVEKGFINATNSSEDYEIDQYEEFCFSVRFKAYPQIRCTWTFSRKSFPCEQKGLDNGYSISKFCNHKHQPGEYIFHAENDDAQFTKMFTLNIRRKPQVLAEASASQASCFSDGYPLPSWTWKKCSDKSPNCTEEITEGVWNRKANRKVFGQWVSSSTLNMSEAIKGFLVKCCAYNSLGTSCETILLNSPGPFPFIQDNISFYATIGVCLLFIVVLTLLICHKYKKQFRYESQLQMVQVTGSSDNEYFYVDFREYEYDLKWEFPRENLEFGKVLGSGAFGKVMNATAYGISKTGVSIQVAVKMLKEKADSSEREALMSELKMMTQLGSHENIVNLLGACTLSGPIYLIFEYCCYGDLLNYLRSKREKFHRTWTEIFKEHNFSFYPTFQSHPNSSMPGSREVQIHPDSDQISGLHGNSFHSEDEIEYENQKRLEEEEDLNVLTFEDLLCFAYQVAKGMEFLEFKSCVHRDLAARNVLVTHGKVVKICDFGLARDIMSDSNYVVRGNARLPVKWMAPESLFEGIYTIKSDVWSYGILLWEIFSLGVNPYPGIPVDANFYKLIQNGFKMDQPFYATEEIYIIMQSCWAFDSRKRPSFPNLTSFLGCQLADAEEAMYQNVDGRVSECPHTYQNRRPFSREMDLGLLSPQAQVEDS
Chain of Tyrosine-protein kinase Blk (P51451 whole entry): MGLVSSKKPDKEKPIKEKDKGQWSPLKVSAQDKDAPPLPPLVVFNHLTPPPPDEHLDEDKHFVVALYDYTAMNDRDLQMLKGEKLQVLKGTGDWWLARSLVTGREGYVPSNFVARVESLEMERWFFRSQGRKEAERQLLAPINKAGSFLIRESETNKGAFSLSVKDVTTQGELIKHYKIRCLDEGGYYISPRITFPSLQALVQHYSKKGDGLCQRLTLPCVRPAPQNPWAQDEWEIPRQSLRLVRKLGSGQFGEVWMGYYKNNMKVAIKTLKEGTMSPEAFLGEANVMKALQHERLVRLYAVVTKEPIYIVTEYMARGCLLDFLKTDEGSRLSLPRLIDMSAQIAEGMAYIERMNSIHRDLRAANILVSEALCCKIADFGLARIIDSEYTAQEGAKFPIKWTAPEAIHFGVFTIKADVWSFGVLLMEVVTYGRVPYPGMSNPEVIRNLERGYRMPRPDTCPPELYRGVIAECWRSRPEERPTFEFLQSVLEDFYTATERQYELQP

For the compound `C=CS(=O)(=O)N1CCC[C@@H]1Cn1cc(-c2ccc3c(c2)OCO3)c2c(N)ncnc21`, the Ratio IC50 in the test filed under Homo sapiens [1] was found to be 28.1; in the test listed under Homo sapiens [3] it was 22.5; in the test listed under Homo sapiens [10], 37.8; in the test filed under Homo sapiens [14], 3.1; in the test filed under Homo sapiens [15], 2.1. Besides, the IC50 (in general, the concentration at which inhibition is half-maximal) worked out at 115 nM in [2]; 3280 nM in test [4]; 643 nM in test [5]; 1000 nM in test [6]; 35.7 nM in [7]; 312 nM in test [8]. For the same compound, the IC50 is 89.5 nM in test [9], 1350 nM in test [11], 76.4 nM in test [12] and over 10000 nM in [13].
